Laboratory results from US11203594B2, “Anti-proliferative agents for treating PAH” (Pfizer Inc., priority 2019, dated 2021).
Read-outs that look alike come from different tables or passages of the source.

Legend:
CDK4/Cyclin D1 = CDK4/Cyclin D1 (Homo sapiens (Human), UniProt P11802); assay: CDK4/Cyclin D1 CHEF assay (Chelation-Enhanced Fluorescence), Ki by Morrison equation; assay type: biochemical; details: geometric mean, read-out: CDK4/Cyclin D1 GMean Ki
Text: (§1) In Vitro Purified Enzyme Assays to Determine Potency for CDKs
(§2) CDK4/Cyclin D1 and CDK6/Cylcin D3 CHEF Assay
(§3) The Chelation-Enhanced Fluorescence (CHEF) monitors the phosphorylation state in real time where the level of fluorescence is directly proportional to the amount of phosphorylated substrate. CHEF exploits a synthetic α-amino acid with a side chain bearing an 8-hydroxyquinoline derivative (sulfonamido-oxine, Sox) which, upon coordination to Mg(II), relays information on the phosphorylation state of a proximal serine, threonine or tyrosine residue in peptide-based kinase substrates. Phosphorylation of a specific peptide (Catalog # AQT0258) from AssayQuant Technologies results in an increase in fluorescence at the excitation and emission wavelengths of 360 nm Ex/485 nm Em.
(§4) Examples along with DMSO (negative) and Palbociclib (positive) controls were added to 384-well plates at 100-fold their final concentrations followed by the addition of 10 nM CDK4/Cyclin D1 (LJIC-2007F1) or 10 nM CDK6/Cyclin D3 (LJIC-2009H2) for a 20 minute pre-incubation in assay buffer containing 40 mM HEPES, 1 mM Dithiothreito (DTT, 10 mM MgCl2, 1% Glycerol, 0.1% BSA. Enzyme reactions were initiated by the addition of AssayQuant Technologies peptide and ATP substrates (10 μM CHEF peptide (Catalog # AQT0258), 2 mM ATP) and allowed to proceed for 2 hours followed by fluorescence read of the reaction. Ki determinations were made from a plot of the fractional velocity as a function of inhibitor concentration fit to the Morrison equation with the enzyme concentration as a variable.
(§5) For all the CDK4 and CDK6 assays the Ki constant for compounds were calculated for each enzyme using the Morrison equation. Fractional activity was measured at different compound concentrations, [I] and the data fit to the Morrison equation where [E] is the enzyme concentration, [S] is the ATP concentration, and Kn^App is the apparent Km for ATP for each enzyme under each assay format. With the Ki calculations dependent on the assay conditions for each assay format the resulting Ki becomes assay independent with a strong one to one correlation of Ki values for compounds tested in both assay formats.
(§6) In Table 2, assay data are presented to two (2) significant figures as the geometric mean (Ki) based on the number of replicates listed (Number). A cell having NA means there was no data for that Example in the indicated assay.

CDK6/Cyclin D3 = CDK6/Cyclin D3 (Homo sapiens (Human), UniProt Q00534); assay: CDK6/Cyclin D3 CHEF assay (Chelation-Enhanced Fluorescence), Ki by Morrison equation; assay type: biochemical; details: geometric mean, read-out: CDK6/Cyclin D3: GMean Ki
Chain of CDK6/Cyclin D3 (Q00534 whole entry): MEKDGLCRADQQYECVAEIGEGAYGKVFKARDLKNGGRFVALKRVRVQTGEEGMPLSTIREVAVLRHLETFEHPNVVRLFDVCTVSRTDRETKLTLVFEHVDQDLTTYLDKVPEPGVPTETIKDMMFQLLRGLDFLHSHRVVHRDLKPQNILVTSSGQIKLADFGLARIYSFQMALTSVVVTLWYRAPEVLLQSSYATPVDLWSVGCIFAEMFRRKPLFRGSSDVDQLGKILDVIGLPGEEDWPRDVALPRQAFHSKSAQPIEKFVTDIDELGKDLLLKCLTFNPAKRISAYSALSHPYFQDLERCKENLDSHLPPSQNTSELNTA
Chain of CDK6/Cyclin D3 (P30281 whole entry partner): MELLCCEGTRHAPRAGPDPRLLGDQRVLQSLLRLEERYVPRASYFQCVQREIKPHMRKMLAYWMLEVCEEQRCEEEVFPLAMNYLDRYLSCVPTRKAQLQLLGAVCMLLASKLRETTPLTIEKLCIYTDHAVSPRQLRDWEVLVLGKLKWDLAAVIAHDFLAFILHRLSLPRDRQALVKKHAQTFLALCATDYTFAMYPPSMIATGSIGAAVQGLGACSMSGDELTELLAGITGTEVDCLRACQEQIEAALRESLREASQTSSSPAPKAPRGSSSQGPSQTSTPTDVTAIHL
Text: as §1, §2, §3, §4, §5, §6

Chain of CDK4/Cyclin D1 (P11802 whole entry): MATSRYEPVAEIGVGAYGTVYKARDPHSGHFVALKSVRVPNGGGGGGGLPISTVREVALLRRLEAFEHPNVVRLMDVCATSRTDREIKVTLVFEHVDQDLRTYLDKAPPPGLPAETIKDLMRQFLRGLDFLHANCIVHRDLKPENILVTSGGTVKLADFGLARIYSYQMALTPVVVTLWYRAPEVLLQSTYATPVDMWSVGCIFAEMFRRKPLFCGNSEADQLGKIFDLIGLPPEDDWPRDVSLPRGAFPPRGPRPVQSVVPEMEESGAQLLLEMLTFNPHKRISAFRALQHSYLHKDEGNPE
Chain of CDK4/Cyclin D1 (P24385 whole entry partner): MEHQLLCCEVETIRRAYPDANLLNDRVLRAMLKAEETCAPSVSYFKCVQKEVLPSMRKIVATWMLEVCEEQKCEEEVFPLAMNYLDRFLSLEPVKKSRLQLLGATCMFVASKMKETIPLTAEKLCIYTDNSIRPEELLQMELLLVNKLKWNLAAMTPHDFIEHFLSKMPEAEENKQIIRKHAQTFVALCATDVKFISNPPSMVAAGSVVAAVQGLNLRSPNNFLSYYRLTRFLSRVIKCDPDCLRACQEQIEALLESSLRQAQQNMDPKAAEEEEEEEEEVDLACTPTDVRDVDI

Compound	Ki (CDK4/Cyclin D1; tested in CHEF Assay)	Ki (CDK6/Cyclin D3; tested in CHEF Assay)	Ki (CDK4/Cyclin D1; tested in both CHEF and MSA)	Ki (CDK6/Cyclin D3; tested in both CHEF and MSA)
CC(=O)c1c(C)c2cnc(N[C@@H]3CCOC[C@H]3O)nc2n([C@H]2CCC[C@]2(C)O)c1=O (mixture of isomers) [Example 6, 6-Acetyl-8-[(1S,2S)-2-hydroxy-2-methylcyclopentyl]-2-{[(3S,4R)-3-hydroxytetrahydro-2H-pyran-4-yl]amino}-5-methylpyrido[2,3-d]pyrimidin-7(8H)-one and 6-Acetyl-8-[(1R,2R)-2-hydroxy-2-methylcyclopentyl]-2-{[(3S,4R)-3-hydroxytetrahydro-2H-pyran-4-yl]amino}-5-methylpyrido[2,3-d]pyrimidin-7(8H)-one]	113 nM	190 nM	–	–
CC(=O)c1c(C)c2cnc(N[C@@H]3CCOC(C)(C)[C@H]3O)nc2n(C2CCCC2)c1=O (mixture of isomers) [Example 8, 6-Acetyl-8-cyclopentyl-2-{[(3S,4R)-3-hydroxy-2,2-dimethyltetrahydro-2H-pyran-4-yl]amino}-5-methylpyrido[2,3-d]pyrimidin-7(8H)-one and 6-Acetyl-8-cyclopentyl-2-{[(3R,4S)-3-hydroxy-2,2-dimethyltetrahydro-2H-pyran-4-yl]amino}-5-methylpyrido[2,3-d]pyrimidin-7(8H)-one]	> 1200 nM	> 560 nM	–	–
CC(=O)c1c(C)c2cnc(N[C@@H]3CCOC(C)(C)[C@H]3O)nc2n(C2CCCC2)c1=O (mixture of isomers) [Example 9, 6-Acetyl-8-cyclopentyl-2-{[(3S,4R)-3-hydroxy-2,2-dimethyltetrahydro-2H-pyran-4-yl]amino}-5-methylpyrido[2,3-d]pyrimidin-7(8H)-one and 6-Acetyl-8-cyclopentyl-2-{[(3R,4S)-3-hydroxy-2,2-dimethyltetrahydro-2H-pyran-4-yl]amino}-5-methylpyrido[2,3-d]pyrimidin-7(8H)-one]	2.7 nM	6.7 nM	–	–
CC(=O)c1c(C)c2cnc(N[C@@H]3CCOC[C@H]3O)nc2n([C@@H]2CC[C@@H]3C[C@@H]32)c1=O (mixture of isomers) [Example 12, 6-Acetyl-8-[(1S,2R,5R)-bicyclo[3.1.0]hexan-2-yl]-2-{[(3S,4R)-3-hydroxytetrahydro-2H-pyran-4-yl]amino}-5-methylpyrido[2,3-d]pyrimidin-7(8H)-one and 6-Acetyl-8-[(1R,2S,5S)-bicyclo[3.1.0]hexan-2-yl]-2-{[(3S,4R)-3-hydroxytetrahydro-2H-pyran-4-yl]amino}-5-methylpyrido[2,3-d]pyrimidin-7(8H)-one]	8.5 nM	9.7 nM	–	–
CC(=O)c1c(C)c2cnc(N[C@@H]3CCOC[C@H]3O)nc2n([C@@H]2CC[C@@H]3C[C@@H]32)c1=O (mixture of isomers) [Example 13, 6-Acetyl-8-[(1S,2R,5R)-bicyclo[3.1.0]hexan-2-yl]-2-{[(3S,4R)-3-hydroxytetrahydro-2H-pyran-4-yl]amino}-5-methylpyrido[2,3-d]pyrimidin-7(8H)-one and 6-Acetyl-8-[(1R,2S,5S)-bicyclo[3.1.0]hexan-2-yl]-2-{[(3S,4R)-3-hydroxytetrahydro-2H-pyran-4-yl]amino}-5-methylpyrido[2,3-d]pyrimidin-7(8H)-one]	2.1 nM	3.3 nM	–	–
CC(=O)c1c(C)c2cnc(N[C@@H]3CCOC[C@H]3O)nc2n([C@@H]2CCC[C@]2(C)F)c1=O (mixture of isomers) [Example 16, 6-Acetyl-8-[(1R,2S)-2-fluoro-2-methylcyclopentyl]-2-{[(3S,4R)-3-hydroxytetrahydro-2H-pyran-4-yl]amino}-5-methylpyrido[2,3-d]pyrimidin-7(8H)-one and 6-Acetyl-8-[(1S,2R)-2-fluoro-2-methylcyclopentyl]-2-{[(3S,4R)-3-hydroxytetrahydro-2H-pyran-4-yl]amino}-5-methylpyrido[2,3-d]pyrimidin-7(8H)-one]	2.6 nM	5 nM	–	–
CC(=O)c1c(C)c2cnc(N[C@@H]3CCOC[C@H]3O)nc2n(C2CCC2)c1=O [Example 1, 6-Acetyl-8-cyclobutyl-2-{[(3S,4R)-3-hydroxytetrahydro-2H-pyran-4-yl]amino}-5-methylpyrido[2,3-d]pyrimidin-7(8H)-one]	1.8 nM	2 nM	–	–
CC(=O)c1c(C)c2cnc(N[C@@H]3CCOC[C@H]3O)nc2n(C2CCCC2)c1=O [Example 2, 6-acetyl-8-cyclopentyl-2-{[(3S,4R)-3-hydroxytetrahydro-2H-pyran-4-yl]amino}-5-methylpyrido[2,3-d]pyrimidin-7(8H)-one]	–	–	0.8 nM	1.2 nM
CC(=O)c1c(C)c2cnc(N[C@@H]3CCOC[C@H]3O)nc2n(C2CC3(CNC3)C2)c1=O [Example 3, 6-Acetyl-8-(2-azaspiro[3.3]heptan-6-yl)-2-{[(3S,4R)-3-hydroxytetrahydro-2H-pyran-4-yl]amino}-5-methylpyrido[2,3-d]pyrimidin-7(8H)-one]	1.1 nM	2.1 nM	–	–
CC(=O)c1c(C)c2cnc(N[C@@H]3CCOC[C@H]3O)nc2n([C@@H]2CCC[C@@H]2C)c1=O [Example 4, 6-Acetyl-2-{[(3S,4R)-3-hydroxytetrahydro-2H-pyran-4-yl]amino}-5-methyl-8-[(1R,2S)-2-methylcyclopentyl]pyrido[2,3-d]pyrimidin-7(8H)-one]	1.6 nM	2.1 nM	–	–
CC(=O)c1c(C)c2cnc(N[C@@H]3CCOC[C@H]3O)cc2n(C2CCCC2)c1=O [Example 5, 3-Acetyl-1-cyclopentyl-7-{[(3S,4R)-3-hydroxytetrahydro-2H-pyran-4-yl]amino}-4-methyl-1,6-naphthyridin-2(1H)-one]	–	–	0.4 nM	1.3 nM

Further lines, results first:

Ki (CDK4/Cyclin D1; tested in CHEF Assay)	Ki (CDK6/Cyclin D3; tested in CHEF Assay)	Ki (CDK4/Cyclin D1; tested in both CHEF and MSA)	Ki (CDK6/Cyclin D3; tested in both CHEF and MSA)	Compound
7.2 nM	7.7 nM	–	–	CC(=O)c1c(C)c2cnc(N[C@@H]3CCOC[C@H]3O)nc2n([C@H]2CCC[C@]2(C)O)c1=O (mixture of isomers) [Example 7, 6-Acetyl-8-[(1S,2S)-2-hydroxy-2-methylcyclopentyl]-2-{[(3S,4R)-3-hydroxytetrahydro-2H-pyran-4-yl]amino}-5-methylpyrido[2,3-d]pyrimidin-7(8H)-one and 6-Acetyl-8-[(1R,2R)-2-hydroxy-2-methylcyclopentyl]-2-{[(3S,4R)-3-hydroxytetrahydro-2H-pyran-4-yl]amino}-5-methylpyrido[2,3-d]pyrimidin-7(8H)-one]
0.9 nM	2.6 nM	–	–	CC(=O)c1c(C)c2cnc(N[C@@H]3CCOC[C@H]3O)cc2n(C2CCC(O)C2)c1=O (single isomer, unassigned) [Example 14]
3.8 nM	7.7 nM	–	–	CC(=O)c1c(C)c2cnc(N[C@@H]3CCOC[C@H]3O)cc2n(C2CCC(O)C2)c1=O (single isomer, unassigned) [Example 15]
> 1100 nM	> 560 nM	–	–	CC(=O)c1c(C)c2cnc(N[C@@H]3CCOC[C@H]3O)nc2n([C@H]2CCC[C@]2(C)F)c1=O (single isomer, unassigned) [Example 23]
2.7 nM	5 nM	–	–	CC[C@H]1CCC[C@H]1n1c(=O)c(C(C)=O)c(C)c2cnc(N[C@@H]3CCOC[C@H]3O)nc21 [Example 10, 6-Acetyl-8-[(1R,2S)-2-ethylcyclopentyl]-2-{[(3S,4R)-3-hydroxytetrahydro-2H-pyran-4-yl]amino}-5-methylpyrido[2,3-d]pyrimidin-7(8H)-one]
34 nM	16 nM	–	–	CC(=O)c1c(C)c2cnc(N[C@@H]3CCOC[C@H]3O)cc2n([C@H]2CCOC2)c1=O [Example 11, 3-Acetyl-7-{[(3S,4R)-3-hydroxytetrahydro-2H-pyran-4-yl]amino}-4-methyl-1-[(3S)-tetrahydrofuran-3-yl]-1,6-naphthyridin-2(1H)-one]
